Laboratory results from PMC10488051, “Screening, Synthesis and Biochemical Characterization of SARS-CoV-2 Protease Inhibitors” (International Journal of Molecular Sciences, 2023).
Like-named read-outs stand apart in the source and are kept apart here.

Experiments:
SARS-CoV-2 PL^pro = SARS-CoV-2 PL^pro (Severe acute respiratory syndrome coronavirus 2, UniProt P0DTD1); assay: PL^pro enzymatic inhibition assay (FRET-based, Z-RLRGG-AMC substrate); format: biochemical; details: for Kd: enzymatic inhibition assay, 25 °C, pH 7.5
SARS-CoV-2 M^pro = SARS-CoV-2 M^pro (Severe acute respiratory syndrome coronavirus 2, UniProt P0DTD1); assay: biochemical; format: biochemical
SARS-CoV-2 = details: patients with mild-to-moderate COVID-19; cited from earlier work
[1] = Table 1 thiazole series, uncertainty approx. 1.8-fold of Kd
[2] = Table 2 disulfide compounds, PL^pro dialyzed to avoid DTT
[3] = Table 2 disulfide compounds, enzymatic inhibition assay, 25 °C, pH 7.5

| SMILES | Kd (SARS-CoV-2 PL^pro; [1]) | Kd (SARS-CoV-2 M^pro) | other results |
| --- | --- | --- | --- |
| Cc1ccc(N(CCC(=O)O)c2nc(C)c(C(=O)C=Cc3ccccc3)s2)cc1 [Compound 25a] | 83 µM | > 200 µM |  |
| Cc1ccc(N(CCC(=O)O)c2nc(-c3ccc(C#N)cc3)c(C=O)s2)cc1 [Compound 29] | > 200 µM | > 200 µM |  |
| Cc1csc(N(CCC(=O)O)c2cccc3ccccc23)n1 [Compound 4] | 110 µM | > 200 µM | Fold weakening of PL^pro interaction compared to compound 3 (SARS-CoV-2 PL^pro; vs parent compound 3): 8 fold |
| CCOC(=O)Cc1csc(N(CCC(=O)O)c2cccc3ccccc23)n1 [Compound 11] | > 200 µM | > 200 µM |  |
| O=C1CCN(c2ccccc2SSc2ccccc2N2CCC(=O)NC2=O)C(=O)N1 [Compound 37] |  |  | Kd (SARS-CoV-2 PL^pro; [2]): 0.63 µM; Kd (SARS-CoV-2 M^pro; [3]): > 200 µM |
| Cc1ccc(N(CCC(=O)O)c2nc(-c3ccc(C#N)cc3)c(/C=N\NC(N)=S)s2)cc1 [Compound 28] | 8.8 µM | ≥ 50 µM |  |
| O=C(O)CCN(C1=NC(=O)C(=Cc2ccccc2O)S1)c1cccc2ccccc12 [Compound 15] | ≥ 50 µM | > 200 µM | melting point: 203 to 204 °C |
| O=C(O)CCN(C1=NC(=O)/C(=C/c2ccc(F)cc2)S1)c1cccc2ccccc12 [Compound 13c] | 8.6 µM | 8.6 µM |  |
| Cn1cnc(Cn2c(=O)[nH]/c(=N\c3cc4cn(C)nc4cc3Cl)n(Cc3cc(F)c(F)cc3F)c2=O)n1 [S-217622] |  |  | Antiviral efficacy in patients (SARS-CoV-2): rapid and favorable antiviral efficacy |
| Cc1nc(N(CCC(=O)O)c2cccc3ccccc23)sc1C(=O)/C=C/c1cccc2ccccc12 [Compound 22] | 5.2 µM | 10 µM | Fold stronger PL^pro affinity than compound 4 (SARS-CoV-2 PL^pro; vs compound 4): more than 20 fold |
| O=C(O)CCN(c1nc(-c2ccc3ccccc3c2)cs1)c1cccc2ccccc12 [Compound 8] | 35 µM | > 200 µM |  |
| O=C(O)CCNc1cccc2ccccc12 [Compound 1, 3-(naphtylamino]propanoic acid] | 68 µM | > 200 µM |  |
| N#Cc1ccc(-c2csc(N(CCC(=O)O)c3ccc(N)cc3)n2)cc1 [Compound 30c] | 32 µM | > 200 µM |  |
| Cc1nc(N(CCC(=O)O)c2cccc3ccccc23)sc1C(=O)/C=C/c1ccc(Cl)cc1 [Compound 21b] | 29 µM | 17 µM | Fold higher PL^pro affinity than compound 25b (SARS-CoV-2 PL^pro): 2 fold; Fold improvement of PL^pro interaction in styryl ketone series (SARS-CoV-2 PL^pro): 4 |
| C/C(=N/N=C(/C)c1sc(N(CCC(=O)O)c2cccc3ccccc23)nc1C)c1sc(N(CCC(=O)O)c2cccc3ccccc23)nc1C [Compound 24] | 8 µM | > 200 µM |  |
| O=C(CCNc1ccccc1SSc1ccccc1NCCC(=O)N/N=C/c1cccs1)N/N=C/c1cccs1 [Compound 35] |  |  | Kd (SARS-CoV-2 PL^pro; [2]): 2.5 µM; Kd (SARS-CoV-2 M^pro; [3]): > 200 µM |
| O=C(O)CCN(c1nc(-c2ccc(Cl)c(Cl)c2)cs1)c1cccc2ccccc12 [Compound 7] | ≥ 50 µM | > 200 µM |  |
| O=C(O)CCN(C1=NC(=O)CS1)c1cccc2ccccc12 [Compound 5] | > 200 µM | > 200 µM |  |
| C/C(=N/Nc1ccccc1)c1sc(N(CCC(=O)O)c2cccc3ccccc23)nc1C [Compound 23] | 75 µM | > 200 µM |  |
| O=C(O)CCN(c1nc(CNc2ccccc2)cs1)c1cccc2ccccc12 [Compound 12] | 29 µM | > 200 µM |  |
| NC(=S)N(CCC(=O)O)c1cccc2ccccc12 [Compound 2] | 29 µM | > 200 µM | Fold increase in PL^pro binding affinity compared to compound 1 (SARS-CoV-2 PL^pro; vs starting compound 1): 2 fold |
| O=C(O)CCN(c1nc(-c2ccc(F)cc2)cs1)c1cccc2ccccc12 [Compound 6c] | ≥ 50 µM | > 200 µM |  |
| O=C(O)CCN(c1nc(-c2ccc(Br)cc2)cs1)c1cccc2ccccc12 [Compound 6a] | ≥ 50 µM | > 200 µM |  |
| Cc1ccc(N(CCC(=O)O)c2nc(C)c(C(=O)C=Cc3ccc(F)cc3)s2)cc1 [Compound 25c] | 58 µM | > 200 µM |  |
| Cc1ccc(C)n1NC(=O)CCNc1ccccc1SSc1ccccc1NCCC(=O)Nn1c(C)ccc1C [Compound 36] |  |  | Kd (SARS-CoV-2 PL^pro; [2]): 1.9 µM; Kd (SARS-CoV-2 M^pro; [3]): > 200 µM |
| O=C(O)CCN(C1=NC(=O)C(=Cc2ccc(O)cc2O)S1)c1cccc2ccccc12 [Compound 14] | 9.2 µM | > 200 µM | melting point: 205 to 206 °C |
| Cc1nc(N(CCC(=O)O)c2cccc3ccccc23)sc1C(=O)/C=C/c1ccc(F)cc1 [Compound 21c] | 52 µM | > 200 µM | Fold improvement of PL^pro interaction in styryl ketone series (SARS-CoV-2 PL^pro): two times |
